Source: PubChem BioAssay AID2060506 (Molecular Pharmacology Branch, DTP, NCI, 2025)
Values belong to the compound of their own block, whether it stands above or below them.

Tested on: 598228-144-R-J1-PDC complex spheroid viability
Test: Anticancer human tumor 598228-144-R-J1-PDC patient-derived serous endometrial adenocarcinoma cell line growth inhibition [GQUAD]
Conditions: for IC50: curve of first compound; for viability, T/C: stronger effect = lower value
Summary of the method: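 Multi-cell-type spheroids of tumor cells with HUVEC and mesenchymal stem cells, treated with drug combinations. Concentrations descend in half-log steps from near clinical Cmax, or from 10 microM where Cmax is unknown; viability read-out.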

[1] = second compound 0.0316 µM, first compound 0.0316 µM
[2] = second compound 0.0316 µM, first compound 0.1 µM
[3] = second compound 0.0316 µM, first compound 0.316 µM
[4] = second compound 0.0316 µM, first compound 1 µM
[5] = second compound 0.0316 µM, first compound 3.16 µM
[6] = second compound 0.0316 µM, first compound 10 µM
[7] = second compound 0.1 µM, first compound 0.0316 µM
[8] = second compound 0.1 µM, first compound 0.1 µM
[9] = second compound 0.1 µM, first compound 0.316 µM
[10] = second compound 0.1 µM, first compound 1 µM
[11] = second compound 0.1 µM, first compound 3.16 µM
[12] = second compound 0.1 µM, first compound 10 µM
[13] = second compound 0.316 µM, first compound 0.0316 µM
[14] = second compound 0.316 µM, first compound 0.1 µM
[15] = second compound 0.316 µM, first compound 0.316 µM
[16] = second compound 0.316 µM, first compound 1 µM
[17] = second compound 0.316 µM, first compound 3.16 µM
[18] = second compound 0.316 µM, first compound 10 µM
[19] = second compound 1 µM, first compound 0.0316 µM
[20] = second compound 1 µM, first compound 0.1 µM
[21] = second compound 1 µM, first compound 0.316 µM
[22] = second compound 1 µM, first compound 1 µM
[23] = second compound 1 µM, first compound 3.16 µM
[24] = second compound 1 µM, first compound 10 µM
[25] = second compound 3.16 µM, first compound 0.0316 µM
[26] = second compound 3.16 µM, first compound 0.1 µM
[27] = second compound 3.16 µM, first compound 0.316 µM
[28] = second compound 3.16 µM, first compound 1 µM
[29] = second compound 3.16 µM, first compound 3.16 µM
[30] = second compound 3.16 µM, first compound 10 µM
[31] = second compound 10 µM, first compound 0.0316 µM
[32] = second compound 10 µM, first compound 0.1 µM
[33] = second compound 10 µM, first compound 0.316 µM
[34] = second compound 10 µM, first compound 1 µM
[35] = second compound 10 µM, first compound 3.16 µM
[36] = second compound 10 µM, first compound 10 µM
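Also: spheroids exposed to the agents for one week before reading.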
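For viability, T/C in this document: percent of vehicle DMSO control viability so 100% = untreated growth.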

Structure (SMILES): CCCS(=O)(=O)Nc1ccc(F)c(C(=O)c2c[nH]c3ncc(-c4ccc(Cl)cc4)cc23)c1F + Cc1[nH]c2ccc(F)cc2c1-c1nc2c3cccnc3c3ncccc3c2[nH]1
IC50 (second compound 0.0316 µM): 8500 nM
IC50 (second compound 0.1 µM): 8720 nM
IC50 (second compound 0.316 µM): > 10000 nM
IC50 (second compound 1 µM): 9540 nM
IC50 (second compound 3.16 µM): < 31.6 nM
IC50 (second compound 10 µM): 8200 nM
viability, T/C [1]: 130%
viability, T/C [2]: 118%
viability, T/C [3]: 135%
viability, T/C [4]: 115%
viability, T/C [5]: 114%
viability, T/C [6]: 39.2%
viability, T/C [7]: 103%
viability, T/C [8]: 112%
viability, T/C [9]: 97.9%
viability, T/C [10]: 106%
viability, T/C [11]: 95.5%
viability, T/C [12]: 43.6%
viability, T/C [13]: 122%
viability, T/C [14]: 126%
viability, T/C [15]: 102%
viability, T/C [16]: 103%
viability, T/C [17]: 129%
viability, T/C [18]: 51.6%
viability, T/C [19]: 80.9%
viability, T/C [20]: 71.9%
viability, T/C [21]: 84.2%
viability, T/C [22]: 76%
viability, T/C [23]: 92.2%
viability, T/C [24]: 48.8%
viability, T/C [25]: 39.3%
viability, T/C [26]: 48.6%
viability, T/C [27]: 43.1%
viability, T/C [28]: 56.4%
viability, T/C [29]: 56.2%
viability, T/C [30]: 31.1%
viability, T/C [31]: 73.4%
viability, T/C [32]: 65.1%
viability, T/C [33]: 78.5%
viability, T/C [34]: 70.4%
viability, T/C [35]: 83.5%
viability, T/C [36]: 45.1%

IC50 (second compound 0.0316 µM): 103 nM
IC50 (second compound 0.1 µM): 114 nM
IC50 (second compound 0.316 µM): 66.6 nM
IC50 (second compound 1 µM): 34.5 nM
IC50 (second compound 3.16 µM): < 31.6 nM
IC50 (second compound 10 µM): < 31.6 nM
Structure (SMILES): O=C(NO)c1cnc(N2CCN(S(=O)(=O)c3ccc4ccccc4c3)CC2)nc1 + Cc1cnc(CNC(=O)c2c(=O)c3ccc(N4CCCN(C)CC4)nc3n3c2sc2ccccc23)cn1
viability, T/C [1]: 92.8%
viability, T/C [2]: 49.6%
viability, T/C [3]: 22.8%
viability, T/C [4]: 0.83%
viability, T/C [5]: 0.39%
viability, T/C [6]: 0.19%
viability, T/C [7]: 80.1%
viability, T/C [8]: 52%
viability, T/C [9]: 25.3%
viability, T/C [10]: 1.24%
viability, T/C [11]: 0.16%
viability, T/C [12]: 0.23%
viability, T/C [13]: 69.4%
viability, T/C [14]: 38.7%
viability, T/C [15]: 16.6%
viability, T/C [16]: 0.27%
viability, T/C [17]: 0.14%
viability, T/C [18]: 0.14%
viability, T/C [19]: 51.6%
viability, T/C [20]: 30.6%
viability, T/C [21]: 0.25%
viability, T/C [22]: 0.31%
viability, T/C [23]: 0.15%
viability, T/C [24]: 0.19%
viability, T/C [25]: 38.1%
viability, T/C [26]: 0.34%
viability, T/C [27]: 0.31%
viability, T/C [28]: 0.23%
viability, T/C [29]: 0.19%
viability, T/C [30]: 0.21%
viability, T/C [31]: 0.42%
viability, T/C [32]: 0.28%
viability, T/C [33]: 0.56%
viability, T/C [34]: 0.4%
viability, T/C [35]: 0.29%
viability, T/C [36]: 0.25%

Structure (SMILES): O=C(NO)c1cnc(N2CCN(S(=O)(=O)c3ccc4ccccc4c3)CC2)nc1 + CN(C)c1ccc(Nc2c3ccc(NC(=O)CCN4CCCC4)cc3nc3cc(NC(=O)CCN4CCCC4)ccc23)cc1
IC50 (second compound 0.0316 µM): 72.9 nM
IC50 (second compound 0.1 µM): 104 nM
IC50 (second compound 0.316 µM): 100 nM
IC50 (second compound 1 µM): 125 nM
IC50 (second compound 3.16 µM): 83.2 nM
IC50 (second compound 10 µM): 52.6 nM
viability, T/C [1]: 79.4%
viability, T/C [2]: 35.2%
viability, T/C [3]: 26.3%
viability, T/C [4]: 0.43%
viability, T/C [5]: 0.48%
viability, T/C [6]: 0.27%
viability, T/C [7]: 87.8%
viability, T/C [8]: 49.5%
viability, T/C [9]: 24%
viability, T/C [10]: 0.39%
viability, T/C [11]: 0.39%
viability, T/C [12]: 0.25%
viability, T/C [13]: 81.3%
viability, T/C [14]: 49.5%
viability, T/C [15]: 18.3%
viability, T/C [16]: 0.5%
viability, T/C [17]: 0.26%
viability, T/C [18]: 0.42%
viability, T/C [19]: 92.3%
viability, T/C [20]: 56.6%
viability, T/C [21]: 21.2%
viability, T/C [22]: 0.43%
viability, T/C [23]: 0.22%
viability, T/C [24]: 0.38%
viability, T/C [25]: 108%
viability, T/C [26]: 38.9%
viability, T/C [27]: 8.39%
viability, T/C [28]: 0.37%
viability, T/C [29]: 0.29%
viability, T/C [30]: 0.29%
viability, T/C [31]: 73.7%
viability, T/C [32]: 19.8%
viability, T/C [33]: 5.5%
viability, T/C [34]: 0.39%
viability, T/C [35]: 0.39%
viability, T/C [36]: 0.34%
